In general, IC50 refers to the concentration at which inhibition is half-maximal. Low values mean greater potency, high ones weaker potency.

In US9802944B2, “Bicyclic compounds as autotaxin (ATX) and lysophosphatidic acid (LPA) production inhibitors” (Hoffmann-La Roche Inc., priority 2014, dated 2017) one finds IC50 data, which are given here for 18 compounds.

The target of the test is ATX (human His-tagged) (Homo sapiens (Human), UniProt Q13822). The experiment in a line: Human ATX enzyme inhibition assay (fluorescence quenching, MR121 substrate). Type of test: biochemical. Particulars: 30 nM ATX, 1 μM MR121 substrate, 30° C., pH 8.0. The protocol: Production of Human Full Length ATX, with and without his Tag
Autotaxin (ATX-ENPP2) Cloning:
cDNA was prepared from commercial human hematopoietic cells total RNA and used as template in overlapping PCR to generate a full length human ENPP2 ORF with or without a 3′-6×His tag. These full length inserts were cloned into the pcDNA3.1V5-His TOPO (Invitrogen) vector. The DNA sequences of several single clones were verified. The DNA from a correct full length clone was used to transfect Hek293 cells for verification of protein expression. […] ATX Fermentation: Recombinant protein was produced by large-scale transient transfection in 20 L controlled stirred tank bioreactors (Sartorius). During cell growth and transfection, temperature, stirrer speed, pH and dissolved oxygen concentration were maintained at 37° C., 120 rpm, 7.1 and 30% DO, respectively. […] Expression was analyzed by Western Blot, enzymatic assay and/or analytical IMAC chromatography. After cooling the cell suspension to 4° C. in a flow-through heat exchanger, cell separation and sterile filtration of supernatant was performed by filtration through Zeta Plus 60M02 E16 (Cuno) and Sartopore 2 XLG (Sartorius) filter units. The supernatant was stored at 4° C. prior to purification. ATX Purification: 20 liter of culture supernatant were conditioned for ultrafiltration by adding Brij 35 to a final concentration of 0.02% and by adjusting the pH to 7.0 using 1 M HCl. Then the supernatant was first microfiltered through a 0.2 μm Ultran-Pilot Open Channel PES filter (Whatman) and afterwards concentrated to 1 liter through an Ultran-Pilot Screen Channel PES filter with 30 kDa MWCO (Whatman). Prior to IMAC chromatography, NiSO4 was added to a final concentration of 1 mM. The cleared supernatant was then applied to a HisTrap column (GE Healthcare) previously equilibrated in 50 mM Na2HPO4 pH 7.0, 0.5 M NaCl, 10% glycerol, 0.3% CHAPS, 0.02% NaN3. The column was washed stepwise with the same buffer containing 20 mM, 40 mM and 50 mM imidazole, respectively. The protein was subsequently eluted using a linear gradient to 0.5 M imidazole in 15 column volumes. ATX containing fractions were pooled and concentrated using an Amicon cell equipped with a 30 kDa PES filter membrane. The protein was further purified by size exclusion chromatography on Superdex S-200 prep grade (XK 26/100) (GE Healthcare) in 20 mM BICINE pH 8.5, 0.15 M NaCl, 10% glycerol, 0.3% CHAPS, 0.02% NaN3. […] The protein was stored at −80° C. […] 10 μL of MR121 substrate solution was added (1 μM final concentration), mixed 30 times and then incubated for 15 minutes at 30° C.

Consider `O=C(c1cc(OCC2CCCOC2)nc(C2CC2)c1)N1C[C@@H]2CN(C(=O)[C@@H]3CCc4[nH]nnc4C3)C[C@H]2C1` (stereo partly drawn) [Example 2.16, ((3aS,6aS)-5-(2-cyclopropyl-6-((tetrahydro-2H-pyran-3-yl)methoxy)isonicotinoyl)hexahydropyrrolo[3,4-c]pyrrol-2(1H)-yl)((R)-4,5,6,7-tetrahydro-1H-benzo[d][1,2,3]triazol-5-yl)methanone], for which the 50% inhibitory concentration (IC50) worked out at 17 nM.
For `NS(=O)(=O)c1ccc(C(=O)N2C[C@H]3CN(C(=O)c4cc(OCC5CCCOC5)nc(C5CC5)c4)C[C@@H]3C2)nc1` (stereo partly drawn) [Example 2.17, 6-((3aR,6aR)-5-(2-cyclopropyl-6-((tetrahydro-2H-pyran-3-yl)methoxy)isonicotinoyl)octahydropyrrolo[3,4-c]pyrrole-2-carbonyl)pyridine-3-sulfonamide] the value was 9 nM.
For `O=C(c1cc(OCC2CCOCC2)nc(C2CC2)c1)N1C[C@@H]2CN(Cc3ccc4[nH]nnc4c3)C[C@H]2C1` [Example 2.18, ((3aS,6aS)-5-((1H-benzo[d][1,2,3]triazol-5-yl)methyl)hexahydropyrrolo[3,4-c]pyrrol-2(1H)-yl)(2-cyclopropyl-6-((tetrahydro-2H-pyran-4-yl)methoxy)pyridin-4-yl)methanone] the value was 10 nM.
With `O=C(c1cc(OCC2CCCOC2)nc(C2CC2)c1)N1C[C@@H]2CN(Cc3ccc4[nH]nnc4c3)C[C@H]2C1` (stereo partly drawn) [Example 2.19, ((3aS,6aS)-5-((1H-benzo[d][1,2,3]triazol-5-yl)methyl)hexahydropyrrolo[3,4-c]pyrrol-2(1H)-yl)(2-cyclopropyl-6-((tetrahydro-2H-pyran-3-yl)methoxy)pyridin-4-yl)methanone] the figure was 10 nM; with `O=C(c1cc(Cl)nc(OCC2CCOCC2)c1)N1C[C@@H]2CN(C(=O)c3ccc4[nH]nnc4c3)C[C@H]2C1` [Example 2.20, ((3aS,6aS)-5-(1H-benzo[d][1,2,3]triazole-5-carbonyl)hexahydropyrrolo[3,4-c]pyrrol-2(1H)-yl)(2-chloro-6-((tetrahydro-2H-pyran-4-yl)methoxy)pyridin-4-yl)methanone], 40 nM.
`O=C(c1ccc2[nH]nnc2c1)N1CC[C@@H]2CN(C(=O)c3cc(OCC4CCOCC4)nc(C4CC4)c3)C[C@@H]2CC1` [Example 2.22, ((3aR,8aS)-6-(1H-benzo[d][1,2,3]triazole-5-carbonyl)octahydropyrrolo[3,4-d]azepin-2(1H)-yl)(2-cyclopropyl-6-((tetrahydro-2H-pyran-4-yl)methoxy)pyridin-4-yl)methanone] gave an IC50 of 10 nM.
For `CN(C)c1cc(C(=O)N2C[C@@H]3CN(C(=O)c4ccc5[nH]nnc5c4)C[C@H]3C2)cc(OCC2CCOCC2)n1` [Example 2.23, ((3aS,6aS)-5-(1H-benzo[d][1,2,3]triazole-5-carbonyl)hexahydropyrrolo[3,4-c]pyrrol-2(1H)-yl)(2-(dimethylamino)-6-((tetrahydro-2H-pyran-4-yl)methoxy)pyridin-4-yl)methanone] the value was 5 nM; for `O=C(c1cc(OCC2CCOCC2)nc(C2CC2)c1)N1C[C@@H]2CN(Cc3ccc4[nH]c(=O)oc4c3)C[C@H]2C1` [Example 2.24, 6-(((3aS,6aS)-5-(2-cyclopropyl-6-((tetrahydro-2H-pyran-4-yl)methoxy)isonicotinoyl)hexahydropyrrolo[3,4-c]pyrrol-2(1H)-yl)methyl)benzo[d]oxazol-2(3H)-one], 11 nM; for `CN(C)c1cc(C(=O)N2C[C@@H]3CN(C(=O)[C@@H]4CCc5[nH]nnc5C4)C[C@H]3C2)cc(OCC2CCOCC2)n1` [Example 2.25, ((3aS,6aS)-5-(2-(dimethylamino)-6-((tetrahydro-2H-pyran-4-yl)methoxy)isonicotinoyl)hexahydropyrrolo[3,4-c]pyrrol-2(1H)-yl)((R)-4,5,6,7-tetrahydro-1H-benzo[d][1,2,3]triazol-5-yl)methanone], 17 nM.
Consider `O=C(c1cc(OCC2CCOCC2)nc(C2CC2)c1)N1C[C@@H]2CN(C(=O)c3ccc4[nH]nnc4c3)C[C@@H]2C1` [Example 2.26, ((3aR,6aS)-5-(1H-benzo[d][1,2,3]triazole-5-carbonyl)hexahydropyrrolo[3,4-c]pyrrol-2(1H)-yl)(2-cyclopropyl-6-((tetrahydro-2H-pyran-4-yl)methoxy)pyridin-4-yl)methanone], for which the IC50 worked out at 14 nM.
As to `O=C(c1cc(OCC2CCOCC2)cc(C2CC2)c1)N1CC[C@@H]2CN(C(=O)[C@@H]3CCc4[nH]nnc4C3)C[C@@H]2CC1` [Example 2.28, ((3aR,8aS)-6-(3-cyclopropyl-5-((tetrahydro-2H-pyran-4-yl)methoxy)benzoyl)octahydropyrrolo[3,4-d]azepin-2(1H)-yl)((R)-4,5,6,7-tetrahydro-1H-benzo[d][1,2,3]triazol-5-yl)methanone], the IC50 worked out at 7 nM.
In turn, `O=C(c1cc(OCC2CCOCC2)cc(C2CC2)c1)N1C[C@@H]2CN(C(=O)c3ccc4[nH]nnc4c3)C[C@H]2C1` [Example 2.29, ((3aS,6aS)-5-(1H-benzo[d][1,2,3]triazole-5-carbonyl)hexahydropyrrolo[3,4-c]pyrrol-2(1H)-yl)(3-cyclopropyl-5-((tetrahydro-2H-pyran-4-yl)methoxy)phenyl)methanone] returned an IC50 of 7 nM. This lies in the single-digit nanomolar range.
With `O=C(c1cnc(OC2CCOCC2)c(C2CC2)c1)N1C[C@@H]2CN(C(=O)c3ccc4[nH]c(=O)oc4c3)C[C@H]2C1` [Example 3, 6-((3aS,6aS)-5-(5-Cyclopropyl-6-(tetrahydro-2H-pyran-4-yloxy)nicotinoyl)octahydropyrrolo[3,4-c]pyrrole-2-carbonyl)benzo[d]oxazol-2(3H)-one] the figure was 25 nM; with `O=C(c1cc(OCC2CCOCC2)nc(C2CC2)c1)N1C[C@@H]2CN(C(=O)c3ccc4[nH]c(=O)oc4c3)C[C@H]2C1` [Example 3.01, 6-((3aS,6aS)-5-(2-cyclopropyl-6-((tetrahydro-2H-pyran-4-yl)methoxy)isonicotinoyl)octahydropyrrolo[3,4-c]pyrrole-2-carbonyl)benzo[d]oxazol-2(3H)-one], 12 nM.
As to `O=C(c1cc(OCC2CCOCC2)nc(C2CC2)c1)N1CC[C@@H]2CN(C(=O)c3ccc4[nH]c(=O)oc4c3)C[C@@H]2CC1` [Example 3.02, 6-((3aR,8aS)-6-(2-cyclopropyl-6-((tetrahydro-2H-pyran-4-yl)methoxy)isonicotinoyl)decahydropyrrolo[3,4-d]azepine-2-carbonyl)benzo[d]oxazol-2(3H)-one], the IC50 was found to be 25 nM.
For `O=C(c1cnc(OC2CCOCC2)c(C2CC2)c1)N1C[C@@H]2CN(Cc3ccc4[nH]c(=O)oc4c3)C[C@H]2C1` [Example 4, 6-(((3aS,6aS)-5-(5-Cyclopropyl-6-(tetrahydro-2H-pyran-4-yloxy)nicotinoyl)hexahydropyrrolo[3,4-c]pyrrol-2(1H)-yl)methyl)benzo[d]oxazol-2(3H)-one] the value was 19 nM.
`O=C(c1cnc(OC2CCOCC2)c(C2CC2)c1)N1C[C@@H]2CN(Cc3ccc4[nH]nnc4c3)C[C@H]2C1` [Example 4.01, ((3aS,6aS)-5-((1H-benzo[d][1,2,3]triazol-5-yl)methyl)hexahydropyrrolo[3,4-c]pyrrol-2(1H)-yl)(5-cyclopropyl-6-(tetrahydro-2H-pyran-4-yloxy)pyridin-3-yl)methanone] registered an IC50 of 39 nM.
In the case of `O=C(OCc1c[nH]nn1)N1C[C@H]2CCN(C(=O)c3cc(OCC4CCOCC4)nc(C4CC4)c3)CC[C@H]2C1` [Example 7, 1H-Triazol-4-ylmethyl (3aS,8aR)-6-[2-cyclopropyl-6-(oxan-4-ylmethoxy)pyridine-4-carbonyl]-1,3,3a,4,5,7,8,8a-octahydropyrrolo[3,4-d]azepine-2-carboxylate], the IC50 worked out at 6 nM. This IC50 lies about 6.5-fold lower than the previous one.
